Assay results taken from the supplement of paper PMC10307832.

Legend:
Experiment in all cases: relative viability (nuclei count vs DMSO), 5 days (fraction); higher = more cells survive
Metformin + Pictilisib = compound: CN(C)C(=N)NC(=N)N [Metformin] + CS(=O)(=O)N1CCN(Cc2cc3nc(-c4cccc5[nH]ncc45)nc(N4CCOCC4)c3s2)CC1 [Pictilisib] (partner 1 µM)
Summary of the method: (§1)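 Lung cancer cell lines in 1536-well plates got either a single drug or a fixed anchor-drug dose together with five library-drug doses (not always all listed) in √10 steps, by pin tool, on the day after seeding. Nuclei were counted after 5 days, and relative viability is the treated-to-vehicle ratio of nuclei counts. Values are medians of duplicate plates.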

Metformin + Decitabine = compound: CN(C)C(=N)NC(=N)N [Metformin] + Nc1ncn([C@H]2C[C@H](O)[C@@H](CO)O2)c(=O)n1 [Decitabine] (partner 2 µM)
Summary of the method: as §1

Apatinib + Trametinib = compound: N#CC1(c2ccc(NC(=O)c3cccnc3NCc3ccncc3)cc2)CCCC1 [Apatinib] + CC(=O)Nc1cccc(-n2c(=O)n(C3CC3)c(=O)c3c(Nc4ccc(I)cc4F)n(C)c(=O)c(C)c32)c1 [Trametinib] (partner 0.02 µM)
Summary of the method: as §1

Apatinib + AZD7762 = compound: N#CC1(c2ccc(NC(=O)c3cccnc3NCc3ccncc3)cc2)CCCC1 [Apatinib] + NC(=O)Nc1cc(-c2cccc(F)c2)sc1C(=O)N[C@H]1CCCNC1 [AZD7762] (partner 0.2 µM)
Summary of the method: as §1

| Cell Line | relative viability (Metformin + Pictilisib; first compound 10 µM) | relative viability (Metformin + Pictilisib; first compound 31.62 µM) | relative viability (Metformin + Pictilisib; first compound 100 µM) | relative viability (Metformin + Pictilisib; first compound 316.23 µM) | relative viability (Metformin + Pictilisib; first compound 1000 µM) | relative viability (Metformin + Decitabine; first compound 10 µM) | relative viability (Metformin + Decitabine; first compound 31.62 µM) | relative viability (Metformin + Decitabine; first compound 100 µM) | relative viability (Metformin + Decitabine; first compound 316.23 µM) | relative viability (Metformin + Decitabine; first compound 1000 µM) | relative viability (Apatinib + Trametinib; first compound 0.08 µM) | relative viability (Apatinib + Trametinib; first compound 0.253 µM) | relative viability (Apatinib + Trametinib; first compound 0.8 µM) | relative viability (Apatinib + Trametinib; first compound 2.53 µM) | relative viability (Apatinib + Trametinib; first compound 8 µM) | relative viability (Apatinib + AZD7762; first compound 0.08 µM) | relative viability (Apatinib + AZD7762; first compound 0.253 µM) | relative viability (Apatinib + AZD7762; first compound 0.8 µM) | relative viability (Apatinib + AZD7762; first compound 2.53 µM) | relative viability (Apatinib + AZD7762; first compound 8 µM) |
| --- | --- | --- | --- | --- | --- | --- | --- | --- | --- | --- | --- | --- | --- | --- | --- | --- | --- | --- | --- | --- |
| SW 1573 | 0.534 | 0.42 | 0.521 | 0.498 | 0.497 | 0.508 | 0.637 | 0.44 | 0.431 | 0.421 | 0.554 | 0.729 | 0.543 | 0.603 | 0.352 |  |  |  |  |  |
| NCI-H2170 | 0.3 | 0.283 | 0.301 | 0.31 | 0.264 | 0.415 | 0.436 | 0.417 | 0.395 | 0.471 | 0.942 | 0.881 | 0.857 | 0.822 | 0.737 | 0.871 | 0.901 | 0.719 | 0.721 | 0.706 |
| NCI-H1993 | 0.672 | 0.783 | 0.778 | 0.699 | 0.747 | 0.616 | 0.681 | 0.672 | 0.634 | 0.766 | 0.436 | 0.579 | 0.538 | 0.493 | 0.461 | 0.869 | 0.7 | 0.648 | 0.576 | 0.638 |
| NCI-H1755 | 0.366 | 0.402 | 0.471 | 0.412 | 0.336 | 0.685 | 0.535 | 0.643 | 0.644 | 0.635 | 0.826 | 0.746 | 0.725 | 0.825 | 0.652 | 0.442 | 0.449 | 0.366 | 0.375 | 0.335 |
| NCI-H1437 | 0.671 | 0.729 | 0.406 | 0.629 | 0.757 | 0.641 | 0.595 | 0.59 | 0.593 | 0.577 | 0.526 | 0.532 | 0.433 | 0.314 | 0.348 | 1.07 | 1.12 | 1.02 | 1.04 | 0.812 |
| EPLC-272H | 0.362 | 0.314 | 0.364 | 0.305 | 0.302 | 0.383 | 0.415 | 0.426 | 0.38 | 0.507 | 0.297 | 0.264 | 0.301 | 0.321 | 0.234 | 0.334 | 0.24 | 0.206 | 0.174 | 0.17 |
| SK-MES-1 | 0.424 | 0.34 | 0.362 | 0.378 | 0.414 | 0.336 | 0.291 | 0.342 | 0.34 | 0.361 | 0.585 | 0.642 | 0.567 | 0.64 | 0.514 |  |  |  |  |  |
